From ChEMBL document CHEMBL1201862, “PubChem BioAssay data set” (2004)
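How tested: cells in 96-well plates exposed to compound for 48 hours at five concentrations. GI50: concentration for 50% inhibition of growth.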 The source made the active and inactive calls. Cut-off read from the data, not from the text of the source: active = GI50 up to about 1.1 µM and inactive = higher.

Legend:
Assay in all cases: NCI anticancer screen, dose series, 48 h
Malme-3M = tested on: Malme-3M
CAKI-1 = tested on: CAKI-1
IGROV-1 = tested on: IGROV-1
A498 = tested on: A498
HCT-15 = tested on: HCT-15
RPMI-8226 = tested on: RPMI-8226
BT-549 = tested on: BT-549
PC-3 = tested on: PC-3
RXF 393 = tested on: RXF 393
T47D = tested on: T47D
TK-10 = tested on: TK-10
A549 = tested on: A549
NCI-H522 = tested on: NCI-H522
MCF7 = tested on: MCF7
SK-OV-3 = tested on: SK-OV-3
LOX IMVI = tested on: LOX IMVI
DU-145 = tested on: DU-145
EKVX = tested on: EKVX
KM12 = tested on: KM12
Hs-578T = tested on: Hs-578T
SNB-19 = tested on: SNB-19
SK-MEL-5 = tested on: SK-MEL-5
SNB-75 = tested on: SNB-75
MOLT-4 = tested on: MOLT-4
SK-MEL-2 = tested on: SK-MEL-2
OVCAR-3 = tested on: OVCAR-3
OVCAR-5 = tested on: OVCAR-5
HCC 2998 = tested on: HCC 2998
OVCAR-8 = tested on: OVCAR-8
786-0 = tested on: 786-0
NCI-H460 = tested on: NCI-H460
COLO 205 = tested on: COLO 205
MDA-MB-231 = tested on: MDA-MB-231
SW-620 = tested on: SW-620
K562 = tested on: K562
SF-539 = tested on: SF-539
CCRF-CEM = tested on: CCRF-CEM
HL-60 = tested on: HL-60
MDA-MB-435 = tested on: MDA-MB-435
M14 = tested on: M14
ACHN = tested on: ACHN
OVCAR-4 = tested on: OVCAR-4
UO-31 = tested on: UO-31
HOP-62 = tested on: HOP-62
UACC-257 = tested on: UACC-257
HCT-116 = tested on: HCT-116
SN12C = tested on: SN12C
MDA-N = tested on: MDA-N
SK-MEL-28 = tested on: SK-MEL-28
NCI-H23 = tested on: NCI-H23
NCI/ADR-RES = tested on: NCI/ADR-RES
SF-295 = tested on: SF-295
U-251 = tested on: U-251
NCI-H226 = tested on: NCI-H226
HT-29 = tested on: HT-29
HOP-92 = tested on: HOP-92
SF-268 = tested on: SF-268
SR = tested on: SR

CN(C)C1C(=O)C(C(N)=O)=C(O)C2(O)C(O)=C3C(=O)c4c(O)cccc4C(C)(O)C3CC12 (configuration not stated)
GI50 (Malme-3M): 86.1 µM (inactive)
GI50 (CAKI-1): 62.4 µM (inactive)
GI50 (IGROV-1): 93.3 µM (inactive)
GI50 (A498): 52.2 µM (inactive)
GI50 (HCT-15): 81.1 µM
GI50 (RPMI-8226): 81.7 µM (inactive)
GI50 (BT-549): 64 µM (inactive)
GI50 (PC-3): 76.7 µM (inactive)
GI50 (RXF 393): 66.5 µM (inactive)
GI50 (T47D): > 100 µM (inactive)
GI50 (TK-10): > 100 µM (inactive)
GI50 (A549): 86.1 µM (inactive)
GI50 (NCI-H522): 86.7 µM (inactive)
GI50 (MCF7): > 100 µM (inactive)
GI50 (SK-OV-3): 55.6 µM (inactive)
GI50 (LOX IMVI): 59 µM (inactive)
GI50 (DU-145): > 100 µM (inactive)
GI50 (EKVX): > 100 µM (inactive)
GI50 (KM12): > 100 µM (inactive)
GI50 (Hs-578T): 63.4 µM (inactive)

CCc1cc2c(cc1CCCC(=O)O)CC1(Cc3ccc(C(=O)O)cc3C1)C2 (configuration not stated)
GI50 (Malme-3M): > 100 µM (inactive)
GI50 (SNB-19): > 100 µM (inactive)
GI50 (SK-MEL-5): > 100 µM (inactive)
GI50 (SNB-75): > 100 µM (inactive)
GI50 (CAKI-1): > 100 µM (inactive)
GI50 (MOLT-4): > 100 µM (inactive)
GI50 (SK-MEL-2): > 100 µM (inactive)
GI50 (OVCAR-3): > 100 µM (inactive)
GI50 (OVCAR-5): > 100 µM (inactive)
GI50 (IGROV-1): > 100 µM (inactive)
GI50 (HCC 2998): > 100 µM (inactive)
GI50 (OVCAR-8): > 100 µM (inactive)
GI50 (A498): > 100 µM (inactive)
GI50 (786-0): > 100 µM (inactive)
GI50 (NCI-H460): > 100 µM (inactive)
GI50 (COLO 205): > 100 µM (inactive)
GI50 (HCT-15): > 100 µM
GI50 (RPMI-8226): > 100 µM (inactive)
GI50 (MDA-MB-231): > 100 µM (inactive)
GI50 (SW-620): > 100 µM (inactive)
GI50 (K562): > 100 µM (inactive)
GI50 (SF-539): > 100 µM (inactive)
GI50 (CCRF-CEM): > 100 µM (inactive)
GI50 (PC-3): > 100 µM (inactive)
GI50 (RXF 393): > 100 µM (inactive)
GI50 (HL-60): > 100 µM (inactive)
GI50 (T47D): > 100 µM (inactive)
GI50 (MDA-MB-435): > 100 µM (inactive)
GI50 (M14): > 100 µM (inactive)
GI50 (ACHN): > 100 µM (inactive)
GI50 (TK-10): > 100 µM (inactive)
GI50 (OVCAR-4): > 100 µM (inactive)
GI50 (UO-31): > 100 µM (inactive)
GI50 (A549): > 100 µM (inactive)
GI50 (HOP-62): > 100 µM (inactive)
GI50 (NCI-H522): > 100 µM (inactive)
GI50 (MCF7): > 100 µM (inactive)
GI50 (UACC-257): > 100 µM (inactive)
GI50 (HCT-116): > 100 µM (inactive)
GI50 (SN12C): > 100 µM (inactive)
GI50 (SK-OV-3): > 100 µM (inactive)
GI50 (LOX IMVI): > 100 µM (inactive)
GI50 (MDA-N): > 100 µM (inactive)
GI50 (DU-145): > 100 µM (inactive)
GI50 (SK-MEL-28): > 100 µM (inactive)
GI50 (NCI-H23): > 100 µM (inactive)
GI50 (EKVX): > 100 µM (inactive)
GI50 (NCI/ADR-RES): > 100 µM (inactive)
GI50 (SF-295): > 100 µM (inactive)
GI50 (KM12): > 100 µM (inactive)
GI50 (U-251): > 100 µM (inactive)
GI50 (Hs-578T): > 100 µM (inactive)
GI50 (NCI-H226): > 100 µM (inactive)
GI50 (HT-29): > 100 µM (inactive)
GI50 (HOP-92): > 100 µM (inactive)
GI50 (SF-268): > 100 µM (inactive)
GI50 (SR): > 100 µM (inactive)
